# Reference: patent EP2204099A1, “Methods for producing pure amino acid chelate complexes, and uses thereof” (Viva Pharmaceuticals Inc., priority 2008, dated 2010)
# Experiments:
# [1] = tested on: CTX-induced immunodeficient mice; assay: Clearance of charcoal particles (carbon clearance test) in CTX-induced immunodeficient mice; type: in vivo; settings: 17 mg/kg per os; CTX 50 mg/kg i.p.; x±sd, n=10
# Procedure: A total of 70 mice were divided into 7 treatment groups: Vehicle; CTX (cyclophosphamide) + Vehicle; CTX+ZnSO4 (17mg mg/kg); CTX+Zinc chelate (Zn:2Asp:2Lys) (57 mg/kg); CTX+Zinc chelate (Zn:2Asp:2Lys) (114 mg/kg); CTX+Zinc chelate (Zn:2Asp:2Lys) (228 mg/kg); and CTX+Zinc chelate (Zn:2Asp:2Lys) (456 mg/kg). The mice were administrated per os at least 16 days before experimentation. CTX was given as an intraperitoneal injection at the dose of 50 mg/kg every day for 4 days after 9 days of drug administration.
# Sixty minutes after the last drug administration, mice were injected with 1:3 diluted Indian ink 10 ml/kg. At 1 min (T1) and 11 min (T2), bold 40µl was taken from retroocular venous plexus and resolved in 0.1 % Na2CO3 solution 4 ml. The absorbance (OD) was measured at 600 nm by a 721 spectrophotometer. The clearance rate K and clearance index a were calculated: K = (lgOD1-lgOD2)/T2 -T1 [formula] α = K^(1/3) × W/(liver weight+spleen weight) [formula] (W: weight of mouse)
# [2] = tested on: CTX-induced immunodeficient mice; assay: Serum hemolysin test in CTX-induced immunodeficient mice; type: in vivo; settings: 17 mg/kg per os; SRBC-immunized; CTX 50 mg/kg i.p.; x±sd, n=10
# Procedure: A total of 70 mice were divided into […] treatment groups: Vehicle; CTX (cyclophosphamide) + Vehicle; CTX+Zinc Sulphate (17mg mg/kg); CTX+Zinc chelate (Zn:[…]:[…]) (57 mg/kg); CTX+Zinc chelate (Zn:[…]:[…]) (114 mg/kg); CTX+Zinc chelate (Zn:[…]:[…]) (228 mg/kg); CTX+Zinc chelate (Zn:[…]:[…]) (456 mg/kg). The mice were administrated per os at least 16 days before experimentation. After 8 days of drug or vehicle administration, all mice were immunized with an intraperitioneal injection of 0.2 ml of 20% SRBC (sheep red blood cell) in saline. CTX was given intraperitoneal injection at the dose of 50 mg/kg every day for 4 days after 9 days of drug administration. Sixty minutes after the last drug administration, blood was collected by retroorbital venous plexus puncture, and then centrifuged (2000 r/min 5 min). Sheep red cell suspension 0.5 ml (5% sheep red cell in saline) was added to 1 ml diluted sera (1:500 dilution with saline), followed by 1 ml diluted guinea pig plasma (10% plasma in saline) in sequence. For negative controls, the durg waqs substituted with saline. The samples and controls were incubated for 10 min at 37°C, and then immersed in an ice-water bath (0°C) to stop the reaction. […] The absorbance for each tube was recorded and the 50% hemolytic dose (HC50) was calculated as follows: Sample HC50 = sample absorbance 50% hemolytic absorbance x dilution factors.
substance,measurement,setting,value
Zinc Sulphate,α (clearance index),[1],4.2988±1.4347
same,HC50 (serum hemolysin),[2],141.7±29.5
